For two compounds, IC50 results are on record in ChEMBL document CHEMBL5647690, “Inhibition of demethylases by GSK-J1/J4” (Nature, 2014).

Assay [1] deals with T1, Lysine-specific demethylase 2B (Homo sapiens, UniProt Q8NHM5).
T1 sequence (Q8NHM5 whole entry): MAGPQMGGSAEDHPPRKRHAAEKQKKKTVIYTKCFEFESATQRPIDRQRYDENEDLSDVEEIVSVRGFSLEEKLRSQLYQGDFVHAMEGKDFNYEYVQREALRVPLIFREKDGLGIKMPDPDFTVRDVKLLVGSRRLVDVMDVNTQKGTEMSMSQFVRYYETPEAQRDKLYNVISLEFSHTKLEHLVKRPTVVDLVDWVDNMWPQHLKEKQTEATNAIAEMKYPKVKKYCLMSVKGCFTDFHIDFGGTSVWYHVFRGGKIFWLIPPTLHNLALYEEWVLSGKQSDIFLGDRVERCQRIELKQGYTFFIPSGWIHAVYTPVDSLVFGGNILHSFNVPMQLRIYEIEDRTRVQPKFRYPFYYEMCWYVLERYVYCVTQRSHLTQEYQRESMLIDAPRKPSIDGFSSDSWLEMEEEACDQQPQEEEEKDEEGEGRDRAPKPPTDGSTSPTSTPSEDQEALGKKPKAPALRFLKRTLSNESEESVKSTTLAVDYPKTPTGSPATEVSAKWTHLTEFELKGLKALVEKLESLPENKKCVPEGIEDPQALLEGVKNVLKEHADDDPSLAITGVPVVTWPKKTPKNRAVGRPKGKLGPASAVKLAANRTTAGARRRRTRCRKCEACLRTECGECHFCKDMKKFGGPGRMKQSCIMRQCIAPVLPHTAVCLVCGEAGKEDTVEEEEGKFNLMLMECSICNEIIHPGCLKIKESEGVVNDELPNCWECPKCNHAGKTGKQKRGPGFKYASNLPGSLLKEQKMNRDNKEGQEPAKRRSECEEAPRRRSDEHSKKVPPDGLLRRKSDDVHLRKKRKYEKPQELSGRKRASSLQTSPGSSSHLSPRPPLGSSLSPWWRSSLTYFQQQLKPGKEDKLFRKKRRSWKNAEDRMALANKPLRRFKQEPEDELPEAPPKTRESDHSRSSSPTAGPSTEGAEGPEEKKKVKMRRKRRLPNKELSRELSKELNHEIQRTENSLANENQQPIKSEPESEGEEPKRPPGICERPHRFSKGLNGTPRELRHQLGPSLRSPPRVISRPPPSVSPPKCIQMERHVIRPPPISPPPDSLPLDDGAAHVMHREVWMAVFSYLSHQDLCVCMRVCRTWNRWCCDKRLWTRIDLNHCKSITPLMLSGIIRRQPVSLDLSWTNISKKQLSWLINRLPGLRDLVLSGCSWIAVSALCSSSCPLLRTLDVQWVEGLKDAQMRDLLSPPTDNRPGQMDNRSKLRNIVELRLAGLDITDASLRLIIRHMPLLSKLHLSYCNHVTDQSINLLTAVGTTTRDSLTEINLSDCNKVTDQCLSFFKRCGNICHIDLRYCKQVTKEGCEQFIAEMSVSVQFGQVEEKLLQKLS
The assay can be described thus: Inhibition of KDM2B (1 to 650 residues)(unknown origin) by Alphalisa assay.

Assay [2] concerns the target Lysine-specific demethylase 5A (Homo sapiens, UniProt P29375). The assay can be described thus: Inhibition of KDM5A (1 to 1090 residues)(unknown origin) by Alphalisa assay.
Assay [3] addresses Lysine-specific demethylase 5B (Homo sapiens, UniProt Q9UGL1). The assay can be described thus: Inhibition of KDM5B (1 to 809 residues)(unknown origin) by Alphalisa assay.
Assay [4] deals with Lysine-specific demethylase 5C (Homo sapiens, UniProt P41229). The assay can be described thus: Inhibition of KDM5C (2 to 1560 residues)(unknown origin) by Alphalisa assay.
The target of assay [5] is Histone lysine demethylase PHF8 (Homo sapiens, UniProt Q9UPP1). The assay can be described thus: Inhibition of PHF8 (1 to 1024 residues)(unknown origin) by Alphalisa assay.
Chain of Histone lysine demethylase PHF8 (Q9UPP1 whole entry, the tested form may be a part): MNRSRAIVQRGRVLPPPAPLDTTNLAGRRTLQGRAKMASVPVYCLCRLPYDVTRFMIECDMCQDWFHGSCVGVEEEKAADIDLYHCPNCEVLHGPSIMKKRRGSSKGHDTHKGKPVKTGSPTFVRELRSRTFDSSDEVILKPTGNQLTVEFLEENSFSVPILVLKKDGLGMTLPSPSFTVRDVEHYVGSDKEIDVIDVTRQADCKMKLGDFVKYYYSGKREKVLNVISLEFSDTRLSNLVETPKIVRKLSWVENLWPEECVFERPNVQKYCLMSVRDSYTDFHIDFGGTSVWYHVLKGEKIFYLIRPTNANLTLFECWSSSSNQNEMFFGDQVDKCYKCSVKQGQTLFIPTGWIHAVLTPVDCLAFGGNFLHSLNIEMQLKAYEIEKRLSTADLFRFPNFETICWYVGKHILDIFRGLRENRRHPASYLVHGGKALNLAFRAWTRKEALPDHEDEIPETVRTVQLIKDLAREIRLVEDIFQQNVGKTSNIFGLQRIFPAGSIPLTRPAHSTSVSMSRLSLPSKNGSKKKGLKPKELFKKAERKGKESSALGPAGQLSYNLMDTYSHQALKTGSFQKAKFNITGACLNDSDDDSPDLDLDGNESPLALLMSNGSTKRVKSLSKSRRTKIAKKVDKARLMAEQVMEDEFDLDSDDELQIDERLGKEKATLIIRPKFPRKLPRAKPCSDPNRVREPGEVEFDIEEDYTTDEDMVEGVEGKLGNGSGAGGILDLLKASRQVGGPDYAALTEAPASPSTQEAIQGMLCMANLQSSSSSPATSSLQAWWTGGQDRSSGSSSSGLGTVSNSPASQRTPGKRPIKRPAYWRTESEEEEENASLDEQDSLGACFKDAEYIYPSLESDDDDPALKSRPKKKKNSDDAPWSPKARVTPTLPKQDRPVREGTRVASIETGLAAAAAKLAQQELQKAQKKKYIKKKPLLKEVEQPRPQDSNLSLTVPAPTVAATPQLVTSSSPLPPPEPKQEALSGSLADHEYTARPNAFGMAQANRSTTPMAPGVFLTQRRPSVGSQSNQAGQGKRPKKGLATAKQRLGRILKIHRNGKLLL

Chain of Lysine-specific demethylase 5A (P29375 whole entry, the tested form may be a part): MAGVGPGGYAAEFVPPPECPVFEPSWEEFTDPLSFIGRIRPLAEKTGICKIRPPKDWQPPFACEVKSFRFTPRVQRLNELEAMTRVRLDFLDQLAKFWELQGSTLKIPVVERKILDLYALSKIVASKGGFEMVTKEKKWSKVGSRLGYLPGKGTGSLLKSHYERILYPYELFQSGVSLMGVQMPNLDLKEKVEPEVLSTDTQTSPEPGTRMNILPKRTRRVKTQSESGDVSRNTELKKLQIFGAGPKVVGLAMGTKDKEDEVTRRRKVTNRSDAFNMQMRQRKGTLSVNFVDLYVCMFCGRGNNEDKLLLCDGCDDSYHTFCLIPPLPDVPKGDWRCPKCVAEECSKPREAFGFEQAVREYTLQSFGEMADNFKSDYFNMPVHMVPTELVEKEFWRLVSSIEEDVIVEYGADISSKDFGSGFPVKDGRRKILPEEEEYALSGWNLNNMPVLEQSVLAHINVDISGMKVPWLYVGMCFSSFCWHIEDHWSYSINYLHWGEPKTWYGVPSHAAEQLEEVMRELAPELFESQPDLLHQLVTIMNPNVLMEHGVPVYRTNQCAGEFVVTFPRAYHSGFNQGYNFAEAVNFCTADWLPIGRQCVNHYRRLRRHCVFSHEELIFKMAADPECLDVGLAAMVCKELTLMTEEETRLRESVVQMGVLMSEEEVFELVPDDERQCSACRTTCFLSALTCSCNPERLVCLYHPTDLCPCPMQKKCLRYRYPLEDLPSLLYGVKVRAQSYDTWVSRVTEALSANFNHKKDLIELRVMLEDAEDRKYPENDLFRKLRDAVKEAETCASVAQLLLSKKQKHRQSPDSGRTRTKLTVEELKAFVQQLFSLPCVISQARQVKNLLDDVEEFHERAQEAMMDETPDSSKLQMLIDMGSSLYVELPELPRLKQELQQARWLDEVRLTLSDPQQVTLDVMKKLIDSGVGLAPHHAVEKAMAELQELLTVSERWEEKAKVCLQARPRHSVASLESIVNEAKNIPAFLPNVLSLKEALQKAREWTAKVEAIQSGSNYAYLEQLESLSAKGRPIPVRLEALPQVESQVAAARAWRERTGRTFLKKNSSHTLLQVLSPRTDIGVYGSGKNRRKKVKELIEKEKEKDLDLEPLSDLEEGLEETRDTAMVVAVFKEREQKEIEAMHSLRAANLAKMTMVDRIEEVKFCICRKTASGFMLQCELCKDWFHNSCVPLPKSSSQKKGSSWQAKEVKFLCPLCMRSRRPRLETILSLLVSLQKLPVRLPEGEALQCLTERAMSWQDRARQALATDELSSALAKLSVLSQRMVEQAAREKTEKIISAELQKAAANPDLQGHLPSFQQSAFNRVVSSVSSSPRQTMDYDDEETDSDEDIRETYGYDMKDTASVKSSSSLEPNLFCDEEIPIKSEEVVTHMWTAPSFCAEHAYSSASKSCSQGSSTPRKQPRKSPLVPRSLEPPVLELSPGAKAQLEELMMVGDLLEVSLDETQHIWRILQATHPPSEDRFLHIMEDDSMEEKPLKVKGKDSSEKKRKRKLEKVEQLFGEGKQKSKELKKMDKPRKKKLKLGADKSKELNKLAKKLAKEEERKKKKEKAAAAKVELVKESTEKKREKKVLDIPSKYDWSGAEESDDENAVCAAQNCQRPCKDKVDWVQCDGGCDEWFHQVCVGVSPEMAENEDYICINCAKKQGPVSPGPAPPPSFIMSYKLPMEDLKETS
Chain of Lysine-specific demethylase 5B (Q9UGL1 whole entry, the tested form may be a part): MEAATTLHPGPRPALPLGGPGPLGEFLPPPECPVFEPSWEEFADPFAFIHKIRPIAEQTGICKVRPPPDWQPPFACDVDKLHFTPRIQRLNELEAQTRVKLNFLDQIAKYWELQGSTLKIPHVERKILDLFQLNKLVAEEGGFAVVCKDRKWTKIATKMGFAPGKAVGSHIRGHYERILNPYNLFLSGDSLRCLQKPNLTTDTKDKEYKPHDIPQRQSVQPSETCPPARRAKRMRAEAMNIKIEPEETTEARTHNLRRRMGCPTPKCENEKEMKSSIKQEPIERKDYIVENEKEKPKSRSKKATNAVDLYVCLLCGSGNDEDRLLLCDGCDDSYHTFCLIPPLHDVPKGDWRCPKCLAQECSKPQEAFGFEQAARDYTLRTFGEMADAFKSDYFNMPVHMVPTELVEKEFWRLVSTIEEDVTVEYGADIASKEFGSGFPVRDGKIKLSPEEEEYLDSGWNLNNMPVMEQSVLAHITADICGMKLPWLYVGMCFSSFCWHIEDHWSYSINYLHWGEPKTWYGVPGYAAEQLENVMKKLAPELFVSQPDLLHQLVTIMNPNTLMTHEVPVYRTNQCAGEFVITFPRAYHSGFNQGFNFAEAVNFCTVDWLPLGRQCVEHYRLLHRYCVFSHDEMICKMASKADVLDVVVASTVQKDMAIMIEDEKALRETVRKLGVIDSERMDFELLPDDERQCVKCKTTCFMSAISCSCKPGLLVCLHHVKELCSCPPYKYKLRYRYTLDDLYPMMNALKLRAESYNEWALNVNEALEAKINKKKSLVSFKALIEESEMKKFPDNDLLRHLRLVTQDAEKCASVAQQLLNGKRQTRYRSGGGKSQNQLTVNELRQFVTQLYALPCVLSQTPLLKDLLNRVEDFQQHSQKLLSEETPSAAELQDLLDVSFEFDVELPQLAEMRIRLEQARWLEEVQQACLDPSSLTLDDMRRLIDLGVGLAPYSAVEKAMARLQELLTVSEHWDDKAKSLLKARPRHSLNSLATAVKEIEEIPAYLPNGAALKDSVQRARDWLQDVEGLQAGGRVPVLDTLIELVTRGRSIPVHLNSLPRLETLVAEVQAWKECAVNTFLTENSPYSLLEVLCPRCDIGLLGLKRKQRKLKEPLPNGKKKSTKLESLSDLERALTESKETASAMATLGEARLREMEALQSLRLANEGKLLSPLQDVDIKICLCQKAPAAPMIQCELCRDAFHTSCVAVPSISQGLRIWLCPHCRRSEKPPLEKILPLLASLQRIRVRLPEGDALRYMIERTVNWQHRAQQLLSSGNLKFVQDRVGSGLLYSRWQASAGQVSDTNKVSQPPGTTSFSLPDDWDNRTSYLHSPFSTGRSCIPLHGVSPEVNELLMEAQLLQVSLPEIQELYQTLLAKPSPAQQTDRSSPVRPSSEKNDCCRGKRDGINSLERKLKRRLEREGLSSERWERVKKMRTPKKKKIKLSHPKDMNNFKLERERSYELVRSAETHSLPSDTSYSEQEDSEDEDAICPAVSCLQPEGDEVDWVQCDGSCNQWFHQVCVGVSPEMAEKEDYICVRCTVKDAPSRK

Take `O=C(O)CCNc1cc(N2CCc3ccccc3CC2)nc(-c2cccnc2)n1`: the concentration for half-maximal inhibition (IC50) was 8.3 µM in assay [1]; above 20 µM in assay [2]; 33 µM in assay [3]; above 75 µM in assay [4]; 17 µM in assay [5].

With `CCOC(=O)CCNc1cc(N2CCc3ccccc3CC2)nc(-c2cccnc2)n1`, the IC50 in assay [1] is 24 µM; in assay [2], above 50 µM; in assay [3], above 25 µM; in assay [5] it was above 25 µM.
